Where two headings read alike, the source gives them in different places.
Assays:
[1] = pharmacokinetics of GA metabolites in EHBRs orally treated with GA; format: in vivo, Eisai hyperbilirubinuria rats (EHBRs); conditions: for concentration at 12 h: Eisai hyperbilirubinuria rat (EHBR), rat, plasma, 200 mg/kg, GA 0.20 g/kg oral, read-out: plasma concentration 12 h after oral administration of GA
Method: Pharmacokinetic Experiments of GA Metabolites in EHBRs Orally Treated With GA
Male and female EHBRs (9 week-old) were anaesthetized by an intraperitoneal injection of urethane (1 g/kg) and their jugular veins were exposed. GA suspended in 0.5% carboxymethylcellulose was then administered orally (200 mg/kg) to the unconscious rats, and blood samples were collected from the jugular vein while urine samples were collected using a metabolic cage at appropriate times over a 12 h period.
LC-MS/MS Analysis for GA Metabolites
(§1) Briefly, after diluting serum and urine samples with water to obtain suitable concentrations, they were digested with subtilisin (0.91 U/ml), followed by the addition of astragaloside IV (used as an internal standard; Fujifilm Wako Pure Chemicals, Osaka, Japan), and deproteinized using 80% ethanol. […] The transitions (precursor to daughter) monitored and retention times were as follows: ESI(+), 743.4 to 567.5 m/z (35 and 25 V for cone voltage and collision energy, respectively) for compound 1 (8.1 min); ESI(–), 565.5 to 96.5 m/z (80 and 60 V) for 2 (9.6 min); ESI(–), 549.5 to 96.5 m/z (80 and 60 V) for 3 (15.4 min); ESI(+), 727.3 to 551.2 m/z (30 and 25 V) for 4 (11.3 min); ESI(+), 647.6 to 453.6 m/z (40 and 20 V) for 3MGA (15.0 min); ESI(+), 471.3 to 91.0 m/z (40 and 20 V) for GA (13.4 min); ESI(+), 823.5 to 453.6 m/z (30 and 20 V) for GL (18.4 min); and ESI(+), 785.4 to 143.0 m/z (30 and 20 V) for astragaloside IV (3.0 min). Linear regressions over the concentration range of 2 nM to 2 µM for each compound were examined using the peak-area ratio of the compounds to their internal standards and the least-squares method (r ^ 2 > 0.98). The detection limits for 1, GL, and GA were 6.4 nM, and those for 2, 3, and 4, and 3MGA were 3.2 nM.
FIGURE 5 Pharmacokinetic profiles of glycyrrhizin (GL) metabolites in female (A–C) and male (D–F) Eisai hyperbilirubinuria rats (EHBRs). […] Data of GA, 3MGA, 1, 2, and 3 in (A) and GA, 3MGA, 2, and 3 for (D) are relatively small; their magnified graphs are shown in (B,E), respectively. Concentrations of GA metabolites were measured using liquid chromatography-tandem mass spectrometry (LC-MS/MS), and data are means ± standard error (S.E: n = 4).

[2] = elimination of GA metabolites in SD rats intravenously injected with GA; format: in vivo, Sprague-Dawley (SD) rats; conditions: female SD rats, GA iv, faeces collected 24 h after injection
Text: as §1
FIGURE 6 Elimination of glycyrrhizin (GL) metabolites into bile in Sprague-Dawley (SD) rats. Female SD rats (10 week-old) were anesthetized using intraperitoneal injection of urethane (1 g/kg), and biliary tracts were cannulated. […] Concentrations of GA metabolites were measured using liquid chromatography-tandem mass spectrometry (LC-MS/MS) and accumulated elimination of GA-metabolites are means ± standard error (S.E: n = 3).

anti-3MGA-mAb = experiment: competitive ELISA using anti-3MGA-mAb; format: binding; conditions: competitive ELISA in aqueous solution, 3MGA calibrated to 100%
Method: ELISA System Using anti-3MGA-mAb
An ELISA system to measure the cross-reactivity of compounds 3 and 4 by using 3MGA-HSA-conjugate and anti-3MGA-mAb was used according to the protocol in our previous study ([Ishiuchi et al., 2019]). To measure the concentration of 3 in human serum samples using the system ELISA, 3 was dissolved in normal human serum (Sigma) to prepare standard solutions (16 nM–2.0 µM) and the samples or standard solutions (each 10 µl) and ethanol (40 µl) were well mixed and centrifuged (1.2 × 10^4 × g for 7 min). The supernatant was dried up under nitrogen flow at 40°C overnight, and the residue was dissolved in Can Get Signal® Solution 1 (Toyobo Co., Ltd: Osaka, Japan) (50 µl). […] When the observed values were more than 400 nM, the deproteinized serum samples were further diluted with Can Get Signal® Solution 1 for two or four times and analyzed again to observe values from 15.6 to 400 nM.
FIGURE 4 Development of enzyme-linked immunosorbent assay (ELISA) system to measure concentrations of 3 in human serum samples using anti-18β-glycyrrhetyl-3-O-glucuronide (3MGA)-monoclonal antibody (mAb). […] Standard lines between absorbance and concentrations of compound 3 are shown (D) Accuracy of ELISA system in measuring concentrations of 3 in human serum samples using anti-3MGA-mAb. Human serum samples were deproteinized, and concentration of 3 was measured using ELISA system. […]

[3] = design: method as in Takahashi et al., 2019; conditions: ref Takahashi et al., 2019, cited from earlier work
[4] = test system: mineralocorticoid receptor (MR); design: method as in earlier work; conditions: ref Ulmann et al., 1975; Armanini et al., 1983; Monder et al., 1989; cited from earlier work

blood concentration in male rats relative to female rats ([1]; EHBRs, 12 h after oral GA)	concentration at 12 h ([1]; female EHBRs) [nM]	concentration at 12 h ([1]; male EHBRs) [nM]	accumulative elimination in faeces [2]	SMILES	cross-reactivity to anti-3MGA-mAb (anti-3MGA-mAb) [%]	serum concentration of 3 relative to that of GA (fold higher) ([3]; human serum)	maximum serum concentration ([3]; previous clinical study) [µM]	binding activity (ED50) on mineralocorticoid receptor [4]
approximately 7 fold	32000	177000	below detectable levels	CC1(C)[C@@H](OS(=O)(=O)O)CC[C@]2(C)[C@H]3C(=O)C=C4[C@@H]5C[C@@](C)(C(=O)O[C@@H]6O[C@H](C(=O)O)[C@@H](O)[C@H](O)[C@H]6O)C[C@H](O)[C@]5(C)CC[C@@]4(C)[C@]3(C)CC[C@@H]12 [Compound 1, 22α-hydroxy-18β-glycyrrhetyl-3-O-sulfate-30-glucuronide]				
	10000	8200	0.86 ± 0.1 nmol	CC1(C)[C@@H](OS(=O)(=O)O)CC[C@]2(C)[C@H]3C(=O)C=C4[C@@H]5C[C@@](C)(C(=O)O)C[C@H](O)[C@]5(C)CC[C@@]4(C)[C@]3(C)CC[C@@H]12 [Compound 2, 22α-hydroxy-18β-glycyrrhetyl-3-O-sulfate]				
	2000	2200	1.8 ± 0.3 nmol	CC1(C)[C@@H](OS(=O)(=O)O)CC[C@]2(C)[C@H]3C(=O)C=C4[C@@H]5C[C@@](C)(C(=O)O)CC[C@]5(C)CC[C@@]4(C)[C@]3(C)CC[C@@H]12 [Compound 3, 18β-glycyrrhetyl-3-O-sulfate]	23	1.5–2 fold	4.2	
	100	1600	below detectable levels	CC1(C)[C@@H](O[C@@H]2O[C@H](C(=O)O)[C@@H](O)[C@H](O)[C@H]2O)CC[C@]2(C)[C@H]3C(=O)C=C4[C@@H]5C[C@@](C)(C(=O)O)CC[C@]5(C)CC[C@@]4(C)[C@]3(C)CC[C@@H]12 [Compound 3MGA, 18β-glycyrrhetyl-3-O-glucuronide, reference compound]				
	2700	2600	9.8 ± 1.3 nmol	CC1(C)[C@@H](O)CC[C@]2(C)[C@H]3C(=O)C=C4[C@@H]5C[C@@](C)(C(=O)O)CC[C@]5(C)CC[C@@]4(C)[C@]3(C)CC[C@@H]12 [GA, glycyrrhetinic acid, reference compound]				about 100 µM
			below detectable levels	CC1(C)[C@@H](O[C@H]2O[C@H](C(=O)O)[C@@H](O)[C@H](O)[C@H]2O[C@@H]2O[C@H](C(=O)O)[C@@H](O)[C@H](O)[C@H]2O)CC[C@]2(C)[C@H]3C(=O)C=C4[C@@H]5C[C@@](C)(C(=O)O)CC[C@]5(C)CC[C@@]4(C)[C@]3(C)CC[C@@H]12 [GL, glycyrrhizin]				

Source: article PMC8165744, “Identification of an Alternative Glycyrrhizin Metabolite Causing Liquorice-Induced Pseudohyperaldosteronism and the Development of ELISA System to Detect the Predictive Biomarker” (Frontiers in Pharmacology, 2021)
